Reference: US20240374579A1, “BICYCLIC PGDH INHIBITORS AND METHODS OF MAKING AND USING” (EPIRIUM BIO INC., priority 2021, published 2024)

target: T1, 15-PGDH/HPGD (Homo sapiens, UniProt P15428); experiment: hPGDH inhibitor screening biochemical assay; conditions: 10 nM enzyme, 15 μM PGE2, 0.25 mM NAD, fluorescence ex/em 340/485 nm
T1 construct: purchased R&D System 5660-DH
T1 sequence (P15428 1-266): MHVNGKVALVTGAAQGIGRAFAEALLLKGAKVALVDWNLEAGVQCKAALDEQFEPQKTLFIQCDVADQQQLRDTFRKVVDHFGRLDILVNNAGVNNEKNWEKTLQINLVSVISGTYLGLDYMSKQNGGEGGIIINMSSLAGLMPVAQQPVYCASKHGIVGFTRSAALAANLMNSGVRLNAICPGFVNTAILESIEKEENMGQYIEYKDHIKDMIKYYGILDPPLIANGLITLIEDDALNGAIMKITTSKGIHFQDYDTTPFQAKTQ
Experimental: A hydroxyprostaglandin dehydrogenase inhibition screening biochemical assay can be performed to assess the synthesized inhibitors provided herein. Provided herein is an exemplary biochemical assay for hPGDH inhibitor screening.
The in vitro biochemical assay can be performed in white, 384 plates in total 20 μl reaction volume consisting of 10 nM of 15-PGDH/HPGD (R&D System #5660-DH), 15 μM Prostaglandin E2 (Sigma, Cat #P5640-10MG) and 0.25 mM β-Nicotinamide adenine dinucleotide sodium salt (Sigma, Cat #N0632-5G) made in reaction buffer (50 mM Tris-HCl, pH 7.5, 0.01% Tween 20) at 10-point dose response curve for test/tool compounds. Briefly, 5 μl (4×) of compounds solution and 5 μl (final concentration, 10 nM) of enzyme solution is added to white 384 well plates and incubated for 10 mins at 37° C. 5 μl (4×) of Prostaglandin E2 and 5 μl (4×) of β-Nicotinamide adenine dinucleotide sodium salt is added to the wells and incubated for 10 mins at room temperature. Fluorescence is recorded at ex/em=340 nm/485 nm. The percentage ([…]) inhibition of enzyme activity was determined relative to positive control (1% DMSO) and IC50 was calculated using GraphPad prism software (four parameter-variable slope equation).

SMILES | IC50
O=C(O)c1ccc(-n2nnc3cc(C(=O)N4CCC(F)(F)CC4)cnc32)cc1 [Compound C-1, 4-(6-(4,4-difluoropiperidine-1-carbonyl)-3H-[1,2,3]triazolo[4,5-b]pyridin-3-yl)benzoic acid] | < 100 nM
O=C(O)c1ccc(-n2ncc3cc(C(=O)N4CCC(F)(F)CC4)cnc32)cc1 [Compound C-2, 4-(5-(4,4-difluoropiperidine-1-carbonyl)-1H-pyrazolo[3,4-b]pyridin-1-yl) benzoic acid] | < 100 nM
Cc1nc2cc(C(=O)N3CCC(F)(F)CC3)cnc2n1-c1ccc(C(=O)O)cc1 [Compound C-3, 4-(6-(4,4-difluoropiperidine-1-carbonyl)-2-methyl-3H-imidazo[4,5-b]pyridin-3-yl)benzoic acid] | < 100 nM
O=C(c1cnc2c(cnn2-c2ccc(-c3ncn[nH]3)nc2)c1)N1CCC(F)(F)CC1 [Compound C-4] | < 100 nM
O=C(c1cnc2c(c1)nnn2-c1ccc(-c2ncn[nH]2)nc1)N1CCC(F)(F)CC1 [Compound C-5, (3-(6-(1H-1,2,4-triazol-5-yl)pyridin-3-yl)-3H-[1,2,3]triazolo[4,5-b]pyridin-6-yl) (4,4-difluoropiperidin-1-yl)methanone] | < 100 nM
O=C(c1cnc2c(c1)nnn2-c1ccc(-c2ncn[nH]2)cc1)N1CCC(F)(F)CC1 [Compound C-7, (3-(4-(1H-1,2,4-triazol-5-yl)phenyl)-3H-[1,2,3]triazolo[4,5-b]pyridin-6-yl) (4,4-difluoropiperidin-1-yl)methanone] | < 100 nM
O=C(c1ccc2c(c1)nnn2-c1ccc(-c2ncn[nH]2)nc1)N1CCC(F)(F)CC1 [Compound C-9, (1-(6-(1H-1,2,4-triazol-5-yl)pyridin-3-yl)-1H-benzo[d][1,2,3]triazol-5-yl) (4,4-difluoropiperidin-1-yl)methanone] | 100 to 1000 nM
O=C(c1ccc2c(c1)nnn2-c1ccc(-c2ncn[nH]2)cc1)N1CCC(F)(F)CC1 [Compound C-10, (1-(4-(1H-1,2,4-triazol-5-yl)phenyl)-1H-benzo[d][1,2,3]triazol-5-yl) (4,4-difluoropiperidin-1-yl)methanone] | 100 to 1000 nM
O=C(O)c1ccc(-n2nnc3cc(C(=O)N4CCC(F)(F)CC4)ccc32)cc1 [Compound C-11, 4-(5-(4,4-difluoropiperidine-1-carbonyl)-1H-benzo[d][1,2,3]triazol-1-yl) benzoic acid] | 100 to 1000 nM
O=C(c1ccc2c(cnn2-c2ccc(-c3ncn[nH]3)nc2)c1)N1CCC(F)(F)CC1 [Compound C-12] | < 100 nM
O=C(c1ccc2c(cnn2-c2ccc(-c3ncn[nH]3)cc2)c1)N1CCC(F)(F)CC1 [Compound C-13] | < 100 nM
O=C(O)c1ccc(-n2ncc3cc(C(=O)N4CCC(F)(F)CC4)ccc32)cc1 [Compound C-14, 4-(5-(4,4-difluoropiperidine-1-carbonyl)-1H-indazol-1-yl) benzoic acid] | < 100 nM
O=C(c1ccc2c(c1)ncn2-c1ccc(-c2ncn[nH]2)nc1)N1CCC(F)(F)CC1 [Compound C-15, (1-(6-(1H-1,2,4-triazol-5-yl)pyridin-3-yl)-1H-benzo[d]imidazol-5-yl)(4,4-difluoropiperidin-1-yl)methanone] | 100 to 1000 nM
O=C(c1ccc2c(c1)ncn2-c1ccc(-c2ncn[nH]2)cc1)N1CCC(F)(F)CC1 [Compound C-16, (1-(4-(1H-1,2,4-triazol-5-yl)phenyl)-1H-benzo[d]imidazol-5-yl)(4,4-difluoropiperidin-1-yl)methanone] | < 100 nM
O=C(O)c1ccc(-n2cnc3cc(C(=O)N4CCC(F)(F)CC4)ccc32)cc1 [Compound C-17, 4-(5-(4,4-difluoropiperidine-1-carbonyl)-1H-benzo[d]imidazol-1-yl) benzoic acid] | < 100 nM
C[C@H]1CCCN(C(=O)c2cnc3c(cnn3-c3ccc(-c4nnc[nH]4)nc3)c2)C1 [Compound C-20] | < 100 nM
C[C@H]1CCN(C(=O)c2cnc3c(cnn3-c3ccc(-c4nnc[nH]4)nc3)c2)C1 [Compound C-21] | < 100 nM
O=C(c1cnc2c(cnn2-c2ccc(-c3nnc[nH]3)nc2)c1)N1CC2CCCC2C1 (stereo not drawn) [Compound C-22] | < 100 nM
CN(C)c1nc2ccc(-n3ncc4cc(C(=O)N5CCC(F)(F)CC5)cnc43)cn2n1 [Compound C-24] | ≥ 1000 nM
O=C(c1cnc2c(cnn2-c2ccc(-c3nnc[nH]3)cc2)c1)N1CCCC(F)(F)C1 [Compound C-31] | < 100 nM
C[C@H]1CCCN(C(=O)c2cnc3c(cnn3-c3cncc(-c4nc[nH]n4)c3)c2)C1 [Compound C-34] | < 100 nM
C[C@H]1CCCN(C(=O)c2cnc3c(cnn3-c3cncc(C(N)=O)c3)c2)C1 [Compound C-35] | < 100 nM
O=C(c1cnc2c(cnn2-c2cccc(-c3nnc[nH]3)c2)c1)N1CCC(F)(F)CC1 [Compound C-41, (1-(3-(4H-1,2,4-triazol-3-yl)phenyl)-1H-pyrazolo[3,4-b]pyridin-5-yl)(4,4-difluoropiperidin-1-yl)methanone] | < 100 nM
O=C(c1cnc2c(cnn2-c2ccc(-c3nnc[nH]3)cc2)c1)N1CC2CC2C1 (stereo not drawn) [Compound C-42] | 100 to 1000 nM
CCO[C@H]1CCN(C(=O)c2cnc3c(cnn3-c3ccc(-c4nnc[nH]4)cc3)c2)C1 [Compound C-43] | 100 to 1000 nM
CCO[C@@H]1CCN(C(=O)c2cnc3c(cnn3-c3ccc(-c4nnc[nH]4)cc3)c2)C1 [Compound C-44] | ≥ 1000 nM

SMILES | IC50
C[C@@H]1CCN(C(=O)c2cnc3c(cnn3-c3ccc(-c4nnc[nH]4)cc3)c2)C1 [Compound C-46] | 100 to 1000 nM
C[C@H]1CCN(C(=O)c2cnc3c(cnn3-c3ccc(-c4nnc[nH]4)cc3)c2)C1 [Compound C-47] | ≥ 1000 nM
O=C(Nc1cccc(-n2ncc3cc(C(=O)N4CCC(F)(F)CC4)cnc32)c1)C1CC1 [Compound C-49] | 100 to 1000 nM
CC1(C)CCN(C(=O)c2cnc3c(cnn3-c3ccc(-c4nnc[nH]4)cc3)c2)C1 [Compound C-51] | 100 to 1000 nM
CCOC(=O)Nc1cncc(-n2ncc3cc(C(=O)N4CCC[C@H](C(F)(F)F)C4)cnc32)c1 [Compound C-54] | 100 to 1000 nM
O=C(c1cnc2c(cnn2-c2ccc(-c3nnc[nH]3)cc2)c1)N1CCCC(C(F)(F)F)C1 (stereo not drawn) [Compound C-58] | 100 to 1000 nM
C[C@@H]1CN(C(=O)c2cnc3c(cnn3-c3cc(Cl)cc(-c4nnc[nH]4)c3)c2)CCO1 [Compound C-60] | < 100 nM
CC(F)(F)[C@H]1CCN(C(=O)c2cnc3c(cnn3-c3ccc(-c4nnc[nH]4)cc3)c2)C1 [Compound C-61] | < 100 nM
O=C(c1cnc2c(cnn2-c2cc(Cl)cc(-c3nnc[nH]3)c2)c1)N1CCC(F)(F)CC1 [Compound C-62] | < 100 nM
O=C(c1cnc2c(cnn2-c2ccc(-c3nnc[nH]3)c(F)c2)c1)N1CCC(F)(F)CC1 [Compound C-63] | < 100 nM
O=C(c1cnc2c(cnn2-c2ccc(-c3nnc[nH]3)c(F)c2)c1)N1CCSCC1 [Compound C-64] | < 100 nM
CCOC(=O)Nc1cncc(-n2ncc3cc(C(=O)N4CC[C@H](C(C)(F)F)C4)cnc32)c1 [Compound C-65] | 100 to 1000 nM
O=C(c1cnc2c(cnn2-c2cc(Cl)cc(-c3nnc[nH]3)c2)c1)N1CCSCC1 [Compound C-66, (1-(3-chloro-5-(4H-1,2,4-triazol-3-yl)phenyl)-1H-pyrazolo[3,4-b]pyridin-5-yl)(thiomorpholino)methanone] | < 100 nM
O=C(c1cnc2c(cnn2-c2cc(Cl)cc(-c3nnc[nH]3)c2)c1)N1CC[S+]([O-])CC1 [Compound C-67] | 100 to 1000 nM
O=C(c1cnc2c(cnn2-c2ccc(-c3nnc[nH]3)c(Cl)c2)c1)N1CCSCC1 [Compound C-68] | < 100 nM
O=C(c1cnc2c(cnn2-c2ccc(-c3nnc[nH]3)c(F)c2)c1)N1CC[S+]([O-])CC1 [Compound C-69] | 100 to 1000 nM
O=C(c1cnc2c(cnn2-c2ccc(-c3nnc[nH]3)c(Cl)c2)c1)N1CC[S+]([O-])CC1 [Compound C-70] | 100 to 1000 nM
COc1cc(-c2nnc[nH]2)cc(-n2ncc3cc(C(=O)N4CCC(F)(F)CC4)cnc32)c1 [Compound C-71] | < 100 nM
Cc1cc(-n2ncc3cc(C(=O)N4CCC(F)(F)CC4)cnc32)ccc1-c1nnc[nH]1 [Compound C-72] | < 100 nM
O=C(c1cnc2c(cnn2-c2ccc(-c3nnc[nH]3)cc2F)c1)N1CCC(F)(F)CC1 [Compound C-73] | < 100 nM
COc1cc(-n2ncc3cc(C(=O)N4CCC(F)(F)CC4)cnc32)ccc1-c1nnc[nH]1 [Compound C-74] | < 100 nM
CCOC(=O)Nc1cncc(-n2ncc3cc([S+]([O-])CC4CC4)cnc32)c1 (stereo not drawn) [Compound C-90] | 100 to 1000 nM
CCCC[S+]([O-])c1cnc2c(cnn2-c2cccc(-c3nnc[nH]3)c2)c1 (stereo not drawn) [Compound C-92] | 100 to 1000 nM
CCCC[S+]([O-])c1cnc2c(cnn2-c2ccc(-c3nnc[nH]3)cc2)c1 (stereo not drawn) [Compound C-93] | 100 to 1000 nM
CCCC[S+]([O-])c1cnc2c(cnn2-c2cncc(NC(=O)OCC)c2)c1 (stereo not drawn) [Compound C-94] | 100 to 1000 nM
